The record followed here is publication PMC8156206, “Novel N,N′-Disubstituted Selenoureas as Potential Antioxidant and Cytotoxic Agents” (Antioxidants, 2021).

In experiment [1] the test system is HT-29 cells (colon carcinoma). The experiment can be described thus: MTT cell viability assay, HT-29. Type of experiment: cell-based. As to conditions: Homo sapiens, 48 h, MTT. Put shortly: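 Cells at 1 × 10^4/well grown 24 h, then treated 48 h with selenourea at 10 and 50 µM (selected compounds 0.1–100 µM), DMSO as negative control. MTT added 150 min before end, formazan read at 570 nm; IC50 by nonlinear fit, ≥3 independent experiments in triplicate.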
(Tetrazolium assays rely on reduction of a dye to a coloured formazan, in cell work by metabolically active cells.)

Experiment [2] concerns MCF-7, HTB-54, HT-29 and HCT-116 cancer cell lines. The experiment can be described thus: MTT assay, panel of four cancer cell lines. Type of experiment: cell-based. As to conditions: MCF-7, HTB-54, HT-29, HCT-116, read-out: IC50 against the four cancer cell lines tested (all the cell lines). The method, then: (§1) A cell viability assay of each compound was carried out using an MTT assay. Each selenourea was dissolved in dimethyl sulfoxide (DMSO) at a concentration of 0.01 M. Serial dilutions were prepared with non-supplemented culture medium. Cytotoxic activity of each selenourea was determined at two different concentrations (10 and 50 µM) in MCF-7, HTB-54, and HT-29 cells. In addition, selected compounds were tested at seven different concentrations (0.1, 1, 5, 10, 25, 50, 100 µM) on MCF-7, HT-29, HCT-116, HTB-54, 184B5, and BEAS-2B cells. The number of passages before defrosting the cells was 3, and they were kept under culture up to a maximum of 15.
(§2) Briefly, 1 × 10^4 cells/well were grown in 96-well plates for 24 h. Then, these cells were incubated with either DMSO (negative control) at 5 µM or a different concentration of each tested selenourea for 48 h. A volume of 20 µL of MTT was added 150 min before the termination point to measure cellular viability. After this time, culture medium was removed. The resultant formazan crystals were dissolved in 50 µL of DMSO, and absorbance was measured at 570 nm. Results are expressed as IC50, the half maximal inhibitory concentration. This value was calculated using GraphPad Prism 7 software by nonlinear curve fitting. Furthermore, the selectivity index (SI) was calculated as the ratio of the IC50 values determined for the non-malignant and the tumoral cells (IC50 (184B5)/IC50 (MCF-7) or (IC50 (BEAS-2B)/IC50 (HTB-54). Data were obtained from at least three independent experiments performed in triplicates.
Those derivatives that reduced the growth of the cell lines below 50% at 10 µM in at least one cell line were selected for being evaluated at five concentrations between […] and 100 µM. Ten compounds (1d, 1e, 2a, 2d, 3a, 6a, 6b, 6c, 6d, and 6e) passed this threshold and four of them (1e, 6c, 6d and 6e) in all three cancer cell lines. The data are expressed as IC50 (mean ± SD) in a panel of four cancer cell lines (MCF-7, HTB-54, HT-29, and HCT-116), and are shown in Table 1. Cisplatin was used as a standard drug. […] Additionally, reported IC50 values of a well-known antitumor selenocompound, i.e., sodium selenite (Na2SeO3), were used as reference for comparision with the selected selenoureas.

The subject of experiment [3] is 184B5 cells (breast non-malignant derived cell line). Kind of experiment: MTT cell viability assay, 184B5. As to conditions: Homo sapiens, 184B5; 48 h, MTT, mean ± SD; read-out: IC50 184B5 (breast, non-malignant). The format is cell-based. The method, then: (§3) Cell lines were purchased from the American Type Culture Collection (ATCC). MCF-7, HTB-54, BEAS-2B and 184B5 cell lines were grown in RPMI 1640 medium (Gibco) supplemented with 10% fetal bovine serum (FBS; Gibco), 100 units/mL penicillin, and […] streptomycin (Gibco). HT-29 and HCT-116 cell lines was cultured in McCoy’s 5A (Gibco), 10% FBS, 100 units/mL penicillin, and 100 μg/mL streptomycin. Cells were maintained at 37 °C and 5% CO2. Culture medium was replaced every three days.
as §1, §2

In experiment [4] the test system is SK-MEL-5 (melanoma). Kind of experiment: cells. The format is cell-based. The source says:
(§4) The dose–response was also studied in the same 60 cancer cell lines, with outstanding results. […] Table 2 summarizes the GI50, TGI, and LC50 values of representative cell lines. Full data mean GI50 graphs are provided in the Supplementary Materials.

The subject of experiment [5] is UO-31 (renal cancer). Kind of experiment: cells. The format is cell-based.
Source text: as §4

Experiment [6] relates to BEAS-2B cells (lung non-malignant derived cell line). Kind of experiment: MTT cell viability assay, BEAS-2B. Type of experiment: cell-based. As to conditions: Homo sapiens, 48 h, mean ± SD. The method, then: as §3, §1, §2
Experiment [7] has as its system HT-29 cells. Kind of experiment: Annexin V-APC/7AAD cell death assay. The format is cell-based, human. The method, then: 6 × 10^5 cells/well were grown in 6-well plates for 24 h. Cultures were treated with the corresponding amount of the selected compounds, DMSO (control), or 10 μM camptothecin (positive control). Propidium iodide (PI) was used as DNA stain dye to determine cell cycle distribution. Cells were stored at −20 °C with 70% ethanol for at least 24 h. Then, ethanol was removed, cells were washed with PBS, and stained for 30 min with 500 µL of a solution containing 0.001% triton, 0.2% w/v RNase, and 0.02% PI.
For the determination of apoptosis, APC Annexin V Apoptosis Detection Kit with 7-AAD from Biolegend® was employed following the staining procedure described by the manufacturer. Samples were analyzed by flow cytometry using a BD Accuri™ C6 Plus Flow Cytometer (Beckton, Dickinson and company, Franklin Lakes (NJ), USA).
Mounting evidence of the anticancer potential of selenium compounds can be found in the literature. […] Remarkably, these mechanisms vary depending on the selenium compound and on cell phenotype. […] Assays were conducted at different 6c concentrations ranging from 0.1 to 10 µM. Camptothecin (10 µM) was used as positive control.

Where [8] appears, read: HT-29, 6c 10 µM, 24 h, 30 min preincubation.

Molecules are shown by their SMILES.

Usually IC50 stands for the concentration needed to halve the response being measured. As a reminder, the viability is a per cent measure of how many cells are alive, often set against a control. As a reminder, the GI50 is the concentration at which growth is held to half of that of the control. High values mean less potent growth inhibition, low ones more potent growth inhibition. What is called TGI is the concentration giving total growth inhibition. As for `COc1ccc(NC(=[Se])NC23CC4CC(CC(C4)C2)C3)cc1` [Compound 6c, N´-adamantyl-N-(4-methoxyphenyl)selenourea], the IC50 was 5.6 ± 1.24 µM in experiment [1] (HT-29, mean ± SD, read-out: IC50 HT-29 (colon)); less than 10 µM in experiment [2]; 7.23 ± 2.28 µM in experiment [3]; 4.73 ± 0.79 µM in experiment [6]. Also, the viability at 10 µM in experiment [1] (HT-29, 10 µM, read-out: cell viability, percentage of live cells) was 34.6%. Besides, the viability at 50 µM in experiment [1] (HT-29, 50 µM, read-out: cell viability, percentage of live cells) was 25.7%. For the same compound, the CC50 in experiment [4] (Homo sapiens, SK-MEL-5, read-out: LC50) was 4.27 µM. Moreover, the GI50 was 0.56 µM in experiment [4] (Homo sapiens, SK-MEL-5, NCI-60) and 1.74 µM in experiment [5] (Homo sapiens, UO-31, NCI-60). Also, the TGI in experiment [4] (SK-MEL-5, NCI-60) is 1.78 µM; in experiment [5] (UO-31, NCI-60), 4.07 µM. Further, the LC50 (concentration killing 50% of cells) in experiment [5] (Homo sapiens, UO-31, read-out: LC50) was 9.77 µM. Moreover, in experiment [7] (setting [8]), the “cell death after pre-incubation with PI3K inhibitor wortmannin” value is given as “prevented induction cell death”. Besides, the “number of dead cells after pre-incubation with pancaspase inhibitor z-VAD-fmk” value in experiment [7] (setting [8]) was “no significant differences in the number of dead cells”. Moreover, in experiment [7] (HT-29, 48 h, 5 and 10 µM), the “number of dead cells (7AAD positive cells)” value is recorded as “increased the number of dead cells”.
